Structures can show the parent of a compound that is named as a salt. Where two headings read alike, the source gives them in different places.
What was measured:
[1] = test system: IL-1β p17 in cerebrospinal fluid; test: Rat central nervous system IL-1β production test; format: in vivo; details: male Wistar rats, oral, LPS and BzATP in cisterna magna
Experimental: Rat Central Nervous System IL-1β Production Test
Male Wistar rats of 10-14 weeks old were administered with 12.5 μg/5 μL LPS (SIGMA, L2880) in the cisterna magna under isoflurane anesthesia. Two hours later, a test compound was orally administered. Further one hour later, 50 μg/5 μL BzATP (2′(3′)—O-(4-benzoylbenzoyl)adenosine 5′-triphosphate triethylammonium salt, SIGMA, B6396) was administered in the cisterna magna. Thirty minutes later, the cerebrospinal fluid was collected. The cerebrospinal fluid was subjected to Western blotting using an anti-IL-1β antibody (Millipore, AB1832P) to measure IL-1β p17, and then, the suppression rate thereof relative to the solvent-administered group was calculated.
In the Table, Dose refers to a dosage amount of each test compound, and Ex59, Ex75, Ex131, Ex132 and Ex164 represent Example 59, Example 75, Example 131, Example 132 and Example 164, respectively. It was confirmed that the compounds have inhibitory effects on IL-1β production.

[2] = test system: IL-1β production in THP-1 cells (LPS and ATP; NLRP3 inflammasome activation); test: THP-1 IL-1β production inhibitory test; format: cell-based, human; details: Homo sapiens, THP-1, 2 h, read-out: IC50 (nM), IL-1β production
Experimental: THP-1 IL-1β Production Inhibitory Test
To THP-1 cells, 50 ng/mL PMA (phorbol myristate acetate, SIGMA, P1585) was added at 37° C. and then the cells were cultured for 2 days. […] The cells were cultured at 37° C. for 15 minutes. LPS (lipopolysaccharide, SIMGA, L2880) and ATP (adenosine triphosphate, SIGMA, A2383) were added such that the final concentrations of them became 50 ng/mL and 5 mM, respectively. The cells were cultured at 37° C. for 2 hours. The supernatant was collected and the concentration of IL-1β was measured by ELISA (DuoSet ELISA human IL-1β, R&D Systems, DY201). The concentration of IL-1β was plotted against the logarithm of the concentration of the test compound, and the IC50 value was calculated by sigmoidal Emax model nonlinear regression analysis.

[3] = test system: TNF-α production in THP-1 cells (LPS); test: TNF-α production inhibitory test; format: cell-based; details: Homo sapiens; PMA-differentiated THP-1 cells, LPS 50 ng/mL, 2 hours, ELISA
Experimental: TNF-α Production Inhibitory Test
To THP-1 cells, 50 ng/mL PMA (phorbol myristate acetate, SIGMA, P1585) was added and then the cells were cultured at 37° C. for 2 days. The culture medium was exchanged with serum-free RPMI-1640 medium, and a compound known in concentration was added. The cells were cultured at 37° C. for 15 minutes. LPS (lipopolysaccharide, SIMGA, L2880) was added such that the final concentrations of them became 50 ng/mL. The cells were cultured at 37° C. for 2 hours. The supernatant was collected and the concentration of TNF-α was measured by ELISA (DuoSet ELISA human TNF-α, R&D Systems, DY201). The concentration of TNF-α was plotted against the logarithm of the concentration of the test compound, and the IC50 value was calculated by sigmoidal Emax model nonlinear regression analysis.

[4] = PMA-differentiated THP-1 cells, LPS 50 ng/mL and ATP 5 mM, 2 hours, ELISA

IC50 [2, 4]	Compound	also measured
	Cc1nc(N[C@@H]2CCCN(C)C2)nnc1-c1ccc(C(F)(F)F)cc1O [Ex164]	suppression rate of IL-1β p17 relative to the solvent-administered group ([1]; Dose 0.3 mg/kg): 67%; suppression rate of IL-1β p17 relative to the solvent-administered group ([1]; Dose 1 mg/kg): 81%; suppression rate of IL-1β p17 relative to the solvent-administered group ([1]; Dose 3 mg/kg): 80%
10 nM	Cc1nc(N[C@@H]2CCCC[C@H]2O)nnc1-c1ccc(OC(F)(F)F)cc1O [Example 27, 2-(3-{[(1R,2R)-2-hydroxycyclohexyl]amino}-5-methyl-1,2,4-triazin-6-yl)-5-(trifluoromethoxy)phenol]	IC50 [3]: ≥ 10000 nM
1.3 nM	Cc1nc(N[C@@H]2CCCN(C3CC3)C2)nnc1-c1ccc(C(F)(F)F)cc1O [Example 73, 2-(3-{[(3R)-1-cyclopropylpiperidin-3-yl]amino}-5-methyl-1,2,4-triazin-6-yl)-5-(trifluoromethyl)phenol]	IC50 [3]: ≥ 10000 nM
	Cc1nc(N[C@@H]2CCCC[C@H]2O)nnc1-c1ccc(OC(F)F)cc1O [Ex131]	suppression rate of IL-1β p17 relative to the solvent-administered group ([1]; Dose 0.3 mg/kg): −33%; suppression rate of IL-1β p17 relative to the solvent-administered group ([1]; Dose 1 mg/kg): −54%; suppression rate of IL-1β p17 relative to the solvent-administered group ([1]; Dose 3 mg/kg): 61%
470 nM	Cc1nc(NC[C@H]2CNCCO2)nnc1-c1ccc(C(F)(F)F)cc1O [Example 141, 2-[5-methyl-3-({[(2R)-morpholin-2-yl]methyl}amino)-1,2,4-triazin-6-yl]-5-(trifluoromethyl)phenol]	IC50 [3]: ≥ 10000 nM
	COc1ccc(-c2nnc(N[C@@H]3CCCC[C@H]3O)nc2C)c(O)c1 [Ex59]	suppression rate of IL-1β p17 relative to the solvent-administered group ([1]; Dose 0.3 mg/kg): 45%; suppression rate of IL-1β p17 relative to the solvent-administered group ([1]; Dose 1 mg/kg): 54%; suppression rate of IL-1β p17 relative to the solvent-administered group ([1]; Dose 3 mg/kg): 85%
21 nM	CC1(O)CC(Nc2nnc(-c3ccc(C(F)(F)F)cc3O)c(C3CC3)n2)C1 (stereo not shown) [Example 108, 2-(5-cyclopropyl-3-{[(1s,3s)-3-hydroxy-3-methylcyclobutyl]amino}-1,2,4-triazin-6-yl)-5-(trifluoromethyl)phenol]	IC50 [3]: ≥ 10000 nM
1.1 nM	Cc1nc(N[C@@H]2CCCN(C)C2)nnc1-c1ccc(OC(F)F)cc1O [Example 174, 5-(difluoromethoxy)-2-(5-methyl-3-{[(3R)-1-methylpiperidin-3-yl]amino}-1,2,4-triazin-6-yl)phenol]	IC50 [3]: ≥ 10000 nM
25 nM	Cc1nc(N[C@@H]2CCOC[C@H]2O)nnc1-c1ccc(Cl)cc1O [Example 31, (3S,4R)-4-{[6-(4-chloro-2-hydroxyphenyl)-5-methyl-1,2,4-triazin-3-yl]amino}oxan-3-ol]	IC50 [3]: ≥ 10000 nM
150 nM	Cc1nc(N[C@@H]2CCCN(CC(=O)O)C2)nnc1-c1ccc(C(F)(F)F)cc1O [Example 183]	
8.3 nM	Cc1nc(N[C@H]2CCNC2=O)nnc1-c1ccc(OC(F)(F)F)cc1O [Example 72]	
260 nM	Cc1nc(N[C@H]2C[C@](C)(O)C2)nnc1-c1ccc(C(F)(F)F)cc1O [Example 13]	
210 nM	Cc1nc(N[C@@H]2CN(S(C)(=O)=O)C[C@H]2O)nnc1-c1ccc(C(F)(F)F)cc1O [Example 160, (3R,4R)-4-({6-[2-hydroxy-4-(trifluoromethyl)phenyl]-5-methyl-1,2,4-triazin-3-yl}amino)-1-(methanesulfonyl)pyrrolidin-3-ol]	
130 nM	Cc1nc(Nc2cnn(C)c2)nnc1-c1ccc(C(F)(F)F)cc1O [Example 93]	
24 nM	Cc1nc(N[C@H]2CCCNC2=O)nnc1-c1ccc(C(F)(F)F)cc1O [Example 45]	
120 nM	CC(=O)N1CC[C@@H](Nc2nnc(-c3ccc(C(F)(F)F)cc3O)c(C)n2)[C@H](O)C1 [Example 159, 1-[(3R,4R)-3-hydroxy-4-({6-[2-hydroxy-4-(trifluoromethyl)phenyl]-5-methyl-1,2,4-triazin-3-yl}amino)piperidin-1-yl]ethan-1-one]	
40 nM	Cc1nc(N[C@H]2[C@@H]3COC[C@@H]32)nnc1-c1ccc(C(F)(F)F)cc1O [Example 24]	
	Cc1nc(N[C@@H]2CCC[C@H](O)C2)nnc1-c1ccc(C(F)(F)F)cc1O [Ex75]	suppression rate of IL-1β p17 relative to the solvent-administered group ([1]; Dose 0.3 mg/kg): 12%; suppression rate of IL-1β p17 relative to the solvent-administered group ([1]; Dose 1 mg/kg): 73%; suppression rate of IL-1β p17 relative to the solvent-administered group ([1]; Dose 3 mg/kg): 100%
61 nM	Cc1nc(NC[C@H](C)CCN)nnc1-c1ccc(C(F)(F)F)cc1O [Example 136]	
42 nM	Cc1ccc(-c2nnc(N[C@@H]3CCC[C@H](O)C3)nc2C)c(O)c1 [Example 81]	
10 nM	Cc1nc(N[C@@H]2CCOC[C@H]2O)nnc1-c1ccc(OC(F)(F)F)cc1O [Example 32]	
15 nM	Oc1cc(C(F)(F)F)ccc1-c1nnc(N[C@@H]2CCC[C@H]2O)nc1C1CC1 [Example 110]	
390 nM	Cc1nc(NC2CNCCC23CC3)nnc1-c1ccc(C(F)(F)F)cc1O (stereo not shown) [Example 170]	

IC50 [2, 4]	Compound	also measured
5.7 nM	CC(=O)N[C@H]1C[C@@H](CNc2nnc(-c3ccc(C(F)(F)F)cc3O)c(C)n2)C1 [Example 157]	
37 nM	Oc1cc(Cl)ccc1-c1nnc(N[C@@H]2CCOC[C@H]2O)nc1C1CC1 [Example 113]	
19 nM	Cc1nc(N[C@@H]2CCCN(C3COC3)C2)nnc1-c1ccc(C(F)(F)F)cc1O [Example 179]	
22 nM	Cc1nc(N[C@@H]2CCCC[C@@H]2O)nnc1-c1ccc(C(F)(F)F)cc1O [Example 40]	
	Cc1nc(N[C@@H]2CCCC[C@H]2N)nnc1-c1ccc(C(F)(F)F)cc1O [Ex132]	suppression rate of IL-1β p17 relative to the solvent-administered group ([1]; Dose 0.3 mg/kg): −3.7%^; suppression rate of IL-1β p17 relative to the solvent-administered group ([1]; Dose 1 mg/kg): 88%; suppression rate of IL-1β p17 relative to the solvent-administered group ([1]; Dose 3 mg/kg): 88%
11 nM	Cc1nc(N[C@@H]2CC[C@H](C#N)C2)nnc1-c1ccc(C(F)(F)F)cc1O [Example 102]	
450 nM	Cc1nc(NC[C@@H]2CCCNC2)nnc1-c1ccc(C(F)(F)F)cc1O [Example 135]	
200 nM	Cc1nc(NCc2cccnc2)nnc1-c1ccc(C(F)(F)F)cc1O [Example 92]	
18 nM	Cc1nc(N[C@@H]2CC[C@@H](O)C2)nnc1-c1ccc(C(F)(F)F)cc1O [Example 30]	
4.2 nM	Cc1nc(N[C@@H]2CCCN(CC3CC3)C2)nnc1-c1ccc(C(F)(F)F)cc1O [Example 178]	
31 nM	Cc1nc(N[C@H]2C[C@@](C)(O)C2)nnc1-c1ccc(OC(F)(F)F)cc1O [Example 50]	
34 nM	Cc1nc(N[C@@H]2CCCC(F)(F)[C@H]2O)nnc1-c1ccc(C(F)(F)F)cc1O [Example 48]	
38 nM	Cc1nc(N[C@@H]2CCCC[C@H]2O)nnc1-c1cc(F)c(C(F)(F)F)cc1O [Example 169]	
160 nM	Cc1nc(NC[C@H]2C[C@@H](N)C2)nnc1-c1ccc(C(F)(F)F)cc1O [Example 144]	
83 nM	C[C@]1(O)C[C@@H](Nc2nnc(-c3ccc(OC(F)(F)F)cc3O)c(C3CC3)n2)C1 [Example 120]	
9.4 nM	Cc1nc(N[C@H]2C[C@H](CO)C2)nnc1-c1ccc(C(F)(F)F)cc1O [Example 99]	
11 nM	Cc1nc(NC23CC(CO)(C2)C3)nnc1-c1ccc(C(F)(F)F)cc1O [Example 38]	
200 nM	Cc1nc(N[C@@H]2CNC(=O)C2)nnc1-c1ccc(C(F)(F)F)cc1O [Example 63]	
11 nM	Cc1ccc(-c2nnc(N[C@@H]3CCCC[C@H]3O)nc2C)c(O)c1 [Example 37]	
	Cc1nc(NC[C@@H](C)N)nnc1-c1ccc(C(F)(F)F)cc1O [Example 148, 2-(3-{[(2R)-2-aminopropyl]amino}-5-methyl-1,2,4-triazin-6-yl)-5-(trifluoromethyl)phenol monohydrochloride]	IC50 [2]: 150 nM
8.8 nM	Cc1nc(N[C@@H]2CCCC[C@@]2(C)O)nnc1-c1ccc(C(F)(F)F)cc1O [Example 47]	
12 nM	Oc1cc(C(F)(F)F)ccc1-c1nnc(N[C@@H]2CCOC[C@H]2O)nc1C1CC1 [Example 111]	

From patent US12692241B2, “Substituted triazine compound” (Nico Therapeutics, Inc., priority 2021, dated 2026)
